In US11364222B2, “Combination therapy for treatment of cancer” (G1 Therapeutics, Inc., priority 2017, dated 2022):
“Also recorded” adds a separate entry of the source. One block for each compound: values may come before it.

What was measured:
[1] = tested on: MCF-7 cells; test: MCF7 7 day proliferation assay in the presence of 0.1 nM E2 (Hoechst DNA content); format: cell-based; conditions: for IC50: Homo sapiens, MCF7, 168 h, read-out: IC50, MCF7 proliferation
[2] = tested on: MCF-7 cells; test: MCF7 7 day proliferation assay in the presence of 20 nM insulin (Hoechst DNA content); format: cell-based; conditions: Homo sapiens, MCF7, 168 h, read-out: IC50, MCF7 insulin driven proliferation
[3] = tested on: MCF7:WS8; test: Cell viability of MCF7:WS8, fluorescent DNA quantitation; format: cell-based; conditions: MCF7:WS8 cells, day 4, total DNA; for IC50: 96 h, read-out: MCF-7WS8 IC50
[4] = tested on: MCF7:5C; test: Cell viability of MCF7:5C (tamoxifen resistant), fluorescent DNA quantitation; format: cell-based; conditions: 144 h, read-out: MCF-7:5C IC50
[5] = biological target: hERG (Homo sapiens, UniProt Q12809); test: hERG inhibition (summary statement)
Chain of hERG (Q12809 whole entry): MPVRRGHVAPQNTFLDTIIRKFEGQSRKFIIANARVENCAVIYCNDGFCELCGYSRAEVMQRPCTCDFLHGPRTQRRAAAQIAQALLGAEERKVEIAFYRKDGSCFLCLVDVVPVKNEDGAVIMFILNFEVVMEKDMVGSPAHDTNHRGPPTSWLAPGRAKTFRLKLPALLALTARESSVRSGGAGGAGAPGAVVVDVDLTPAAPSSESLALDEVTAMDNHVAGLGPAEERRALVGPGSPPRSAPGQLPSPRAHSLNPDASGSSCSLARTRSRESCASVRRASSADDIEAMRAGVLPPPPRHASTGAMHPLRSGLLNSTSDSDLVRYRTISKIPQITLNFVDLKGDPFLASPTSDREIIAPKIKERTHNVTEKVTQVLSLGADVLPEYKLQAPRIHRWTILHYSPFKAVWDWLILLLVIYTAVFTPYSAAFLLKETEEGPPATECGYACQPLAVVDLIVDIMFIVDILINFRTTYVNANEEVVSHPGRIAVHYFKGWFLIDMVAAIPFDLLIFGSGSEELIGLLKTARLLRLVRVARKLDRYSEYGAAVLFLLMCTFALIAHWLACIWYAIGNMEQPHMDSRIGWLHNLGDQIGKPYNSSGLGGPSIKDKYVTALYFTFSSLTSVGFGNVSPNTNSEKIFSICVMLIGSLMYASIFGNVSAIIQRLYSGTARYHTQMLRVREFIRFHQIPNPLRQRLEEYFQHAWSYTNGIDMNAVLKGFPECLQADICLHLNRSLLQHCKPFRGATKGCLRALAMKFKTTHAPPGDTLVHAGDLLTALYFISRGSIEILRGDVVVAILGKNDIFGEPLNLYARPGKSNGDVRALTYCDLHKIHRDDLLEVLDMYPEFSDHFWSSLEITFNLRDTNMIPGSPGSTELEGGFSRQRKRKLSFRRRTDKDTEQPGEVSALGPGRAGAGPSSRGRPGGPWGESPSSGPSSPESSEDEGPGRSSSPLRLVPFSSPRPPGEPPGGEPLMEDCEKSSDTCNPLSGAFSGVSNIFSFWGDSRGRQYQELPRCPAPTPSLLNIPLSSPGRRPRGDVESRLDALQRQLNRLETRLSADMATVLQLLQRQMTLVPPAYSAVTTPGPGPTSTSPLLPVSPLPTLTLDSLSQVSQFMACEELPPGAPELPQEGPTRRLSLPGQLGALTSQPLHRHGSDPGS

[6] = Glucuronidation in gut intestinal mucosa and liver S9 fraction; format: in vitro ADME; conditions: gut intestinal mucosa and human S9 fraction from the liver
[7] = tested on: tamoxifen-resistant (TamR) xenograft tumors; test: Tamoxifen-resistant (TamR) xenograft tumors, tumor volume; format: in vivo; conditions: 30 mg/kg qd and 100 mg/kg qd, approximately 70 days, FIG. 12B
[8] = tested on: estrogen-receptor positive cell; test: Estrogen-receptor positive cell proliferation (summary statement); format: cell-based
[9] = biological target: T1, estrogen receptor (ER) (Homo sapiens, UniProt P03372); conditions: MCF7 cells, presence or absence of proteasome pathway inhibitor MG132, FIG. 4
T1 sequence (P03372 1-595): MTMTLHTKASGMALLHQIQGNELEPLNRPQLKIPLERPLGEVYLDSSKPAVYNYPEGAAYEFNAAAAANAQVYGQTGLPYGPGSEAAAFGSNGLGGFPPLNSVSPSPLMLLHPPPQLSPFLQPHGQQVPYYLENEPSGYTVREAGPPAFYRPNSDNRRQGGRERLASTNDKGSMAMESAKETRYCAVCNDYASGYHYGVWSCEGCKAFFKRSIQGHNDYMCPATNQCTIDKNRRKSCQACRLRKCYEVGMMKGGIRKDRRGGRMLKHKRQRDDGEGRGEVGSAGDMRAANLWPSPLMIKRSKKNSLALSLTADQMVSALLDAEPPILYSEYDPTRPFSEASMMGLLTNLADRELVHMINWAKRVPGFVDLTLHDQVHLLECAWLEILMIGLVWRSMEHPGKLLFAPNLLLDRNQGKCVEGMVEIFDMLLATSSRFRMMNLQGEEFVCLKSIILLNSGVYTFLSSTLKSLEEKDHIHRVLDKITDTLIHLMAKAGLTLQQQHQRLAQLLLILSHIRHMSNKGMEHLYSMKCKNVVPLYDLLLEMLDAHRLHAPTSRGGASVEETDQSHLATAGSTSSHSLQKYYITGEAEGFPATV

[10] = tested on: estrogen-receptor negative cell; test: Estrogen-receptor negative cell proliferation (summary statement); format: cell-based
[11] = tested on: LTED xenograft tumors; test: LTED xenograft tumors, model of aromatase inhibitor resistance; format: in vivo, OVX nu/nu (ovariectomy nude) mice; conditions: Compound 20 5, 10, 30 or 100 mg/kg, 30 days of treatment, FIG. 13
[12] = Oral bioavailability (summary statement); conditions: in vivo

IC50 [1]: 3.46 nM
SMILES: CC/C(=C(\c1ccc(O)cc1)c1ccc(OCCN(C)C)cc1)c1ccccc1 [4-hydroxytamoxifen]

IC50 [1]: 0.04 nM
IC50 [2]: 0.002 nM
SMILES: C[C@@H]1Cc2c([nH]c3ccccc23)[C@@H](c2c(F)cc(/C=C/C(=O)O)cc2F)N1CC(C)(C)F [AZD9496]

MCF-7WS8 IC50 (nM) [3]: No Inhiibition
SMILES: O=C(O)/C=C/c1ccc(Oc2c(C(=O)c3ccc(O)cc3)sc3cc(O)ccc23)cc1 [Compound 2, (E)-3-(4-((6-Hydroxy-2-(4-hydroxybenzoyl)benzo[b]thiophen-3-yl)oxy)phenyl) acrylic acid]

IC50 [3]: > 10 nM
IC50 [4]: > 10 nM
SMILES: Cc1cc(F)ccc1C(=O)c1sc2cc(O)ccc2c1Oc1c(F)cc(/C=C/C(=O)O)cc1F [Compound 14, (E)-3-(3,5-Difluoro-4-((2-(4-fluoro-2-methylbenzoyl)-6-hydroxybenzo[b]thiophen-3-yl)oxy)phenyl) acrylic acid]

IC50 [3]: < 10 nM
IC50 [4]: < 10 nM
SMILES: Cc1cc(F)ccc1C(=O)c1sc2cc(O)ccc2c1Oc1ccc(/C=C/C(=O)O)cc1F [Compound 15, (E)-3-(3-Fluoro-4-((2-(4-fluoro-2-methylbenzoyl)-6-hydroxybenzo[b]thiophen-3-yl)oxy)phenyl) acrylic acid]

IC50 [3]: < 100 nM
IC50 [4]: < 100 nM
SMILES: Cc1cc(F)ccc1C(F)(F)c1sc2cc(O)ccc2c1Oc1ccc(/C=C/C(=O)O)cc1 [Compound 16, (E)-3-(4-((2-(Difluoro(4-fluoro-2-methylphenyl)methyl)-6-hydroxybenzo[b]thiophen-3-yl)oxy)phenyl)acrylic acid]

IC50 [3]: < 100 nM
IC50 [4]: < 100 nM
SMILES: Cc1cc(F)ccc1C1(c2sc3cc(O)ccc3c2Oc2ccc(/C=C/C(=O)O)cc2)CC1 [Compound 17, (E)-3-(4-((2-(1-(4-Fluoro-2-methylphenyl)cyclopropyl)-6-hydroxybenzo[b]thiophen-3-yl)oxy)phenyl) acrylic acid]

MCF-7WS8 IC50 (nM) [3]: No Inhibition
SMILES: Cc1cc(F)ccc1C(=O)c1sc2cc(O)ccc2c1Oc1ccc(NC(=O)C(=O)O)cc1 [Compound 18, 2-((4-((2-(4-Fluoro-2-methylbenzoyl)-6-hydroxybenzo[b]thiophen-3-yl)oxy)phenyl)amino)-2-oxoacetic acid]

MCF-7WS8 IC50 (nM) [3]: No Inhibition
IC50 [4]: > 10 nM
SMILES: Cc1ccc(C(=O)c2sc3cc(O)ccc3c2Oc2ccc(NC(=O)C(=O)O)cc2)c(C)c1 [Compound 19, 2-((4-((2-(2,4-Dimethylbenzoyl)-6-hydroxybenzo[b]thiophen-3-yl)oxy)phenyl)amino)-2-oxoacetic acid]

IC50 ([1]; 0.1 nM estradiol (E2), 7 day): 0.26 nM
glucuronidation [6]: observed
degradation of the estrogen receptor (ESR1a) with or without MG132 [9]: dependent on the absence of MG132
IC50 ([2]; 20 nM insulin, 7 day): 0.028 nM
oral bioavailability [12]: good
SMILES: Cc1cc(F)cc(C)c1C(=O)c1sc2cc(O)ccc2c1Oc1ccc(/C=C/C(=O)O)cc1 [Compound 20, (E)-3-(4-((2-(4-Fluoro-2,6-dimethylbenzoyl)-6-hydroxybenzo[b]thiophen-3-yl)oxy)phenyl) acrylic acid]
IC50 [5]: > 10000 nM
times more potent than fulvestrant ([1]; 0.1 nM E2, 7 day proliferation): ~4 times
tumor volume, Compound 20 alone [7]: effective in decreasing tumor volume
IC50 [8]: < 1 nM
IC50 [10]: > 10 nM
tumor volume [11]: decrease in tumor volume correlated with the dose level; also recorded: effective in decreasing tumor volume at all doses

IC50 ([1]; 0.1 nM estradiol (E2), 7 day): 1.84 nM
IC50 ([2]; 20 nM insulin, 7 day): 0.055 nM
SMILES: CC/C(=C(/c1ccc(/C=C/C(=O)O)cc1)c1ccc2[nH]ncc2c1)c1ccc(F)cc1Cl [GDC-0810]

IC50 ([1]; 0.1 nM estradiol (E2), 7 day): 946 nM
SMILES: CC/C(=C(\c1ccccc1)c1ccc(/C=C/C(=O)O)cc1)c1ccccc1 [GW-5638, Etacstil]

IC50 ([1]; 0.1 nM estradiol (E2), 7 day): 1.81 nM
SMILES: CC/C(=C(\c1ccccc1)c1ccc(/C=C/C(=O)O)cc1)c1ccc(O)cc1 [GW-7604]

SMILES: C[C@]12C[C@H](c3ccc(OCCCCCS(=O)(=O)CCCC(F)(F)C(F)(F)F)cc3)[C@@H]3c4ccc(O)cc4CC[C@H]3[C@@H]1CC[C@@H]2O [RU 58668]
IC50 ([1]; 0.1 nM estradiol (E2), 7 day): 0.052 nM
IC50 ([2]; 20 nM insulin, 7 day): 0.013 nM

IC50 [1]: 72 nM
SMILES: Cc1c(-c2ccc(O)cc2)n(Cc2ccc(OCCN3CCCCCC3)cc2)c2ccc(O)cc12 [bazedoxifene]

SMILES: C[C@]12CC[C@@H]3c4ccc(O)cc4C[C@@H](CCCCCCCCC[S+]([O-])CCCC(F)(F)C(F)(F)F)[C@H]3[C@@H]1CC[C@@H]2O (stereo partly shown) [fulvestrant]
IC50 [1]: 0.86 nM
IC50 [2]: 0.149 nM

IC50 ([1]; 0.1 nM estradiol (E2), 7 day): 0.17 nM
SMILES: Oc1ccc2c(c1)CC[C@H](c1ccccc1)[C@@H]2c1ccc(OCCN2CCCC2)cc1 [lasofoxofene, Lasofoxifene]

IC50 [1]: 0.77 nM
SMILES: O=C(c1ccc(OCCN2CCCCC2)cc1)c1c(-c2ccc(O)cc2)sc2cc(O)ccc12 [raloxifene]
